Patent US10357477B2, “Anticancer compounds” (REGENTS OF THE UNIVERSITY OF MINNESOTA, priority 2016, dated 2019)
Converted amounts (≈) assume the structure as drawn.

Experiments:
[1] = Microsomal stability assay, human liver microsomes; type: in vitro ADME; conditions: pH 7.4; human liver microsomes 0.5 mg/mL, 1 mM NADPH, 1 μM compound; read-out: Microsomal Stability t1/2 Human
Method: (§1) The in vitro microsomal stability assay was conducted in triplicate in mouse and human liver microsomal systems. In a typical incubation, a compound (typically 1 μM final concentration) was spiked into the reaction mixture containing 0.5 mg/mL of liver microsomal protein and 1 mM of NADPH in 0.1 M potassium phosphate buffer (pH 7.4) at 37° C. At various time points, 1 volume of reaction aliquot was taken and quenched with 3 volumes of acetonitrile with an appropriate internal standard. The samples were then vortexed and centrifuged at 14,000 rpm for 5 min. The supernatants were collected and analyzed by LC-MS/MS to determine the in vitro metabolic half-life (t1/2) and intrinsic clearance (CLint). Verapamil was used as a positive control.
(§2) Quantification and analysis of compounds in biological samples were carried out on an AB Sciex QTrap 5500 mass spectrometer coupled with an Agilent 1260 Infinity HPLC. The chromatographic separation of compounds was achieved using a Phenomenex Kinetex C18 column (50×2.1 mm, 2.6 μm), and MS/MS analysis was conducted using an ESI ion source with MRM detection. The MS/MS detection parameters including declustering potential (DP), entrance potential (EP), collision energy (CE), and collision cell exit potential (CXP) were optimized for each compound.

[2] = Thermodynamic solubility assay; type: physicochemical; conditions: aqueous buffer, thermodynamic from solid, DPBS pH=7.4, 48 h, ambient temperature
Method: Briefly, a saturated solution was made by adding DPBS to the solid compound. The mixture was shaken at 200 rpm for 48 h in a MaxQ 6000 orbital shaker at ambient temperature to allow equilibrium between the solid and dissolved compound. The suspension was then filtered through a 0.45 μm PVDF syringe filter and the filtrate was collected for analysis using UV spectrometry (SpectraMax M5e, Molecular Devices) at λ=240 nm.

[3] = Plasma stability assay, human plasma; type: in vitro ADME; conditions: 37° C.
Method: (§3) The plasma stability assay was performed in triplicate by incubating a compound in normal mouse and human plasma at 37° C. At 0, 1, 3, 6, and 24 h, aliquots of the plasma mixture were taken and quenched with 3 volumes of acetonitrile containing an appropriate internal standard. The samples were then vortexed and centrifuged at 14,000 rpm for 5 min. The supernatants were collected and analyzed by LC-MS/MS to determine the remaining percentage at various time points.
as §2

[4] = tested on: MCF10A cells (normal human mammary cells); assay: Cell viability assay (MTT) in MCF10A cells; type: cell-based; conditions: MCF-10A, 72 h
Method: MCF10A cells are maintained in minimum essential medium (MEM) (Invitrogen 11095) supplemented with 10% FBS (Invitrogen 16000), 1% 10× non-essential amino acids (NEAA) (Invitrogen 11140), 1% Penicillin/Streptomycin (Invitrogen 15140), 1% GlutaMAX (Invitrogen 35050-061), 20 ng/mL EGF, […] hydrocortisone, 100 ng/mL cholera toxin, 10 μg/mL insulin.
(§4) Cells were plated in 96-well plates at 25×10^4 cells/ml. After 24 hours, compounds were added at 9, 3× dilutions in triplicate from 100 uM final concentration in the appropriate growth media. Plates were incubated for 72 hours at 37° C. in a 5% CO2/95% air humidified atmosphere after which time the media was removed and MTT was added in RPMI phenol red free media. The MTT was removed after 3 hours and formazan crystals were solubilized with 200 μL of isopropanol. Plates were read on a Molecular Devices SpectraMax i3 spectrophotometer at 570 nm for formazan and 690 nm for background subtraction. EC50 values were calculated by fitting the data in GraphPad Prism software.

[5] = Microsomal stability assay, mouse liver microsomes; type: in vitro ADME; conditions: pH 7.4; mouse liver microsomes 0.5 mg/mL, 1 mM NADPH, 1 μM compound; read-out: Microsomal Stability t1/2 Mouse
Method: as §1, §2

[6] = Plasma stability assay, mouse plasma; type: in vitro ADME; conditions: 37° C.
Method: as §3, §2

Panc-1 cells = assay: Cell viability assay (MTT) in Panc-1 cells; type: cell-based; conditions: Homo sapiens, antiproliferative activity, 72 h
Method: as §4, with “Panc-1 cells are maintained in RPMI 1640 (Invitrogen 11875) media supplemented with 10% FBS, 1% Penicillin/Streptomycin and 1% Glutamax-1. Cells” for “Cells”

For `CNC(=O)c1cccc(Cn2nc(C)c(NC(=O)c3ccc(COc4ccc(C(F)(F)F)cc4)cc3)c2C)c1` [Compound D9c, 3-((3,5-Dimethyl-4-(4-((4-(trifluoromethyl)phenoxy)-methyl)benzamido)-1H-pyrazol-1-yl)methyl)-N-methylbenzamide], the half-life at 1 μM [1] was 34 min, the solubility at 48 h [2] was 67.3 ± 5.2 µM (≈ 36.1 µg/mL) and the “Plasma Stability (% remaining, 6 h/24 h) Human” value ([3]; 6 h) was 99%. For the same molecule, the “Plasma Stability (% remaining, 6 h/24 h) Human” value ([3]; 24 h) was 100%, the EC50 [4] was 6.7 µM and the half-life at 1 μM [5] was 60 min. For the same molecule, the “Plasma Stability (% remaining, 6 h/24 h) Mouse” value ([6]; 6 h) was 91%, the “Plasma Stability (% remaining, 6 h/24 h) Mouse” value ([6]; 24 h) was 77% and the EC50 (Panc-1 cells) was 210 nM.
